From ChEMBL document CHEMBL1136163, “Conformationally-restricted analogues of efflux pump inhibitors that potentiate the activity of levofloxacin in Pseudomonas aeruginosa” (Bioorg Med Chem Lett, 2003)
Converted amounts (≈) assume the structure as drawn. Where a SMILES comes first, the peptide text is derived from it. The star is where a group is joined. βNA = c1ccc2cc(N*)ccc2c1

What was measured:
Pseudomonas aeruginosa [1] = experiment: In vitro minimum concentration of the efflux pump inhibitor required to inhibit the growth of PAM 1723 a strain of Pseudomonas aeruginosa; assay type: functional
Pseudomonas aeruginosa [2] = experiment: In vitro minimum concentration of the efflux pump inhibitor required to reduce (potentiate) the MIC of fuoroquinolone levofloxacin 8-fold (LVFX); assay type: functional
[3] = In vivo minimum lethal dose causing lethality to >/=66% of the mice tested i.v.; assay type: ADME, organism-based; conditions: mouse, iv
[4] = In vivo toxicity in mice i.v.; assay type: organism-based; conditions: mouse, iv
[5] = Clearance measured in rat; assay type: ADME, organism-based; conditions: in vivo, read-out: CLfree (converted)
[6] = In vivo minimum lethal dose causing lethality to >/=66% of the mice tested i.p.; assay type: ADME, organism-based; conditions: mouse, ip

**Q.** For `CC(C)(C)c1ccc2ncc(NC(=O)[C@H]3C[C@H](CN)CN3)cc2c1`, which MIC (Pseudomonas aeruginosa [1]) is on record?
**A.** 128 µg/mL (≈ 392 µM)

**Q.** And the MPC (Pseudomonas aeruginosa [2])?
**A.** 5 µg/mL

**Q.** What about the MLD [3] of the same compound?
**A.** > 150 mg/kg

**Q.** Which MIC (Pseudomonas aeruginosa [1]) does the source give for `NCCO[C@H]1CN[C@H](C(=O)N[C@H](CCc2ccccc2)C(=O)Nc2cnc3ccccc3c2)C1` here?
**A.** > 512 µg/mL

**Q.** What about the MPC (Pseudomonas aeruginosa [2]) of the same compound?
**A.** 10 µg/mL

**Q.** What about the MLD [3] of the same compound?
**A.** 70 mg/kg

**Q.** What does the source list for `C[C@H]1COc2c(N3CCN(C)CC3)c(F)cc3c(=O)c(C(=O)O)cn1c23.C[C@H]1COc2c(N3CCN(C)CC3)c(F)cc3c(=O)c(C(=O)O)cn1c23.O` [LEVOFLOXACIN]?
**A.** MLD [3]: > 100 mg/kg; LD50 [4]: > 100 mg/kg

**Q.** With `CN(C(=O)[C@@H](N)CCc1ccccc1)[C@@H](CCCN)CSc1nc2ccccc2s1` as the compound, how does the MIC (Pseudomonas aeruginosa [1]) read?
**A.** 128 µg/mL (≈ 289 µM)

**Q.** And the MPC (Pseudomonas aeruginosa [2])?
**A.** 5 µg/mL

**Q.** What about the MLD [3] of the same compound?
**A.** 25 mg/kg

**Q.** What does the source list for `NC[C@@H]1CN[C@@H](C(=O)N[C@H](CCc2ccccc2)C(=O)Nc2cnc3ccccc3c2)C1`?
**A.** MIC (Pseudomonas aeruginosa [1]): > 512 µg/mL; MPC (Pseudomonas aeruginosa [2]): 5 µg/mL; MLD [3]: 50 mg/kg

**Q.** What does the source list for `NCCC[C@@H](N)C(=O)N[C@H](CCc1ccccc1)C(=O)Nc1cnc2ccccc2c1`?
**A.** clearance [5]: 28.3 mL/min/kg; MIC (Pseudomonas aeruginosa [1]): > 512 µg/mL; MPC (Pseudomonas aeruginosa [2]): 10 µg/mL; MLD [6]: 200 mg/kg; MLD [3]: < 25 mg/kg; LD50 [4]: < 25 mg/kg

**Q.** For `CN(C(=O)[C@@H](N)Cc1ccccc1)[C@@H](CCCN)C(=O)Nc1ccc2ccccc2c1`, which MIC (Pseudomonas aeruginosa [1]) is on record?
**A.** 256 µg/mL (≈ 612 µM)

**Q.** And the MPC (Pseudomonas aeruginosa [2])?
**A.** 5 µg/mL

**Q.** What about the MLD [3] of the same compound?
**A.** < 25 mg/kg

**Q.** Which results are given for `NC[C@@H]1CN[C@@H](C(=O)N[C@H](CCc2ccccc2)C(=O)Nc2ccc3ncccc3c2)C1`?
**A.** clearance [5]: 48.3 mL/min/kg; MIC (Pseudomonas aeruginosa [1]): > 512 µg/mL; MPC (Pseudomonas aeruginosa [2]): 10 µg/mL; MLD [3]: > 100 mg/kg

**Q.** Which MIC (Pseudomonas aeruginosa [1]) does the source give for `CC(C)(C)c1ccc2ncc(NC(=O)CNC(=O)[C@H](N)CCCN)cc2c1` here?
**A.** 64 µg/mL (≈ 172 µM)

**Q.** And the MPC (Pseudomonas aeruginosa [2])?
**A.** 5 µg/mL

**Q.** What about the MLD [3] of the same compound?
**A.** 35 mg/kg

**Q.** What does the source list for `N=C(N)NCCC[C@H](NC(=O)[C@@H](N)Cc1ccccc1)C(=O)Nc1ccc2ccccc2c1` [PABETAN] (H-Phe-Arg-βNA)?
**A.** MIC (Pseudomonas aeruginosa [1]): > 512 µg/mL; MPC (Pseudomonas aeruginosa [2]): 10 µg/mL; MLD [3]: < 25 mg/kg; LD50 [4]: < 25 mg/kg

**Q.** For `CC(C)C[C@@H](NC(=O)[C@H](N)CCCN)C(=O)Nc1cnc2ccccc2c1`, which MPC (Pseudomonas aeruginosa [2]) is on record?
**A.** 20 µg/mL

**Q.** And the MLD [6]?
**A.** 300 mg/kg

**Q.** And the MLD [3]?
**A.** 50 mg/kg

**Q.** With `C[C@H](N)C(=O)N[C@H](CCc1ccccc1)C(=O)Nc1cnc2ccccc2c1` as the compound, how does the MPC (Pseudomonas aeruginosa [2]) read?
**A.** >40 µg/mL

**Q.** What about the MLD [3] of the same compound?
**A.** 125 mg/kg
